These results are taken from ChEMBL document CHEMBL3112536, “Pd-N-heterocyclic carbene catalyzed synthesis of piperidine alkene-alkaloids and their anti-cancer evaluation” (Bioorg Med Chem Lett, 2014).

What all share (assay type): functional, cell-based
One assay deals with MCF7. Description: Cytotoxicity against human MCF7 cells assessed as growth inhibition after 24 hrs by MTT assay. The conditions noted are these: MCF7, 24 h. A general note: Tetrazolium dyes change colour on reduction, which living cells bring about.
The next assay relates to OVCAR-3. Description: Cytotoxicity against human OVCAR3 cells assessed as growth inhibition after 24 hrs by MTT assay. Conditions: OVCAR-3, 24 h.
The test system of a further assay is A549. Description: Cytotoxicity against human A549 cells assessed as growth inhibition after 24 hrs by MTT assay. Conditions: A549, 24 h.

Each structure is given as a SMILES string. Converted amounts (≈) assume the structure as drawn.

As usually defined, the IC50 is the concentration needed to halve the response being measured. Regarding `CN1CCCC[C@H]1/C=C/c1ccc(O)cc1`, the results for the IC50 with MCF7, in the assay with OVCAR-3 and in the assay with A549 were 1.51 µg/mL (≈ 6.95 µM), 1.94 µg/mL (≈ 8.93 µM) and 3.45 µg/mL (≈ 15.9 µM), respectively.
For `C(=C\[C@@H]1CCCCN1)/c1ccccc1`, the IC50 with MCF7 was 9.15 µg/mL (≈ 48.9 µM); with OVCAR-3 it was 10.5 µg/mL (≈ 55.9 µM); in the assay with A549, 9.99 µg/mL (≈ 53.3 µM).
As for `Cc1ccc(/C=C/[C@@H]2CCCCN2)cc1`, the IC50 is 5.35 µg/mL (≈ 26.6 µM) in the assay with MCF7, 8.48 µg/mL (≈ 42.1 µM) in the assay with OVCAR-3 and 8.56 µg/mL (≈ 42.5 µM) in the assay on A549.
The like results for `COc1ccc(/C=C/[C@@H]2CCCCN2)cc1` were, in that order, 3.57 µg/mL (≈ 16.4 µM), 3.31 µg/mL (≈ 15.2 µM) and 4.33 µg/mL (≈ 19.9 µM).
Turning to `COc1ccccc1/C=C/[C@@H]1CCCCN1`, the IC50 stood at 3.81 µg/mL (≈ 17.5 µM) with MCF7, 4.78 µg/mL (≈ 22 µM) in the assay on OVCAR-3 and 4.94 µg/mL (≈ 22.7 µM) in the assay on A549.
With `Cc1cccc(C)c1/C=C/[C@@H]1CCCCN1`, the IC50 in the assay on MCF7 was determined as 4.29 µg/mL (≈ 19.9 µM); in the assay on OVCAR-3 it was 6.27 µg/mL (≈ 29.1 µM); in the assay on A549 it was 7.28 µg/mL (≈ 33.8 µM).
For `CCc1ccc(/C=C/[C@@H]2CCCCN2)cc1` the same measures were 4.13 µg/mL (≈ 19.2 µM), 5.07 µg/mL (≈ 23.5 µM) and 5.94 µg/mL (≈ 27.6 µM).
As for `O=[N+]([O-])c1ccc(/C=C/[C@@H]2CCCCN2)cc1`, the IC50 in the assay with MCF7 worked out at 2.15 µg/mL (≈ 9.26 µM); in the assay with OVCAR-3 it was 1.02 µg/mL (≈ 4.39 µM); with A549 it was 3.27 µg/mL (≈ 14.1 µM).
In the case of `CC(=O)c1ccc(/C=C/[C@@H]2CCCCN2)cc1`, the values for the IC50 in the assay on MCF7, in the assay with OVCAR-3 and with A549 were 2.7 µg/mL (≈ 11.8 µM), 2.18 µg/mL (≈ 9.51 µM) and 3.69 µg/mL (≈ 16.1 µM), respectively.
Consider `FC(F)(F)c1ccc(/C=C/[C@@H]2CCCCN2)cc1`, for which the IC50 in the assay with MCF7 is 1.25 µg/mL (≈ 4.9 µM); in the assay on OVCAR-3, 0.99 µg/mL (≈ 3.88 µM); in the assay on A549, 2.82 µg/mL (≈ 11 µM).
